Test systems include SK-MEL-28 melanoma; SW-620 colon; HS 578T breast; DU-145 prostate; MDA-MB-435; RPMI-8226 leukemia; RXF 393 renal; MOLT-4 leukemia; MALME-3M melanoma; MCF7 breast.
Holding throughout (experiment): NCI anticancer screen, dose series, 48 h

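Growth conditions: 96-well plates. Treatment: test compound, 48 hours, 5 concentrations. Analysis: linear interpolation between bracketing concentrations; unreached endpoints set to highest concentration. TGI: total growth inhibition.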 Some results are limits rather than exact numbers.

This note sets out measurements from PubChem BioAssay (NCI).

Turning to `Cc1ccc(-n2cc(-c3ccc(Cl)cc3)c3c(NNC(=S)NCc4ccccc4)ncnc32)cc1`, the TGI in the assay with SK-MEL-28 melanoma was > 100 µM; in the assay on SW-620 colon it was > 100 µM; in the assay with HS 578T breast, > 100 µM; with DU-145 prostate, > 100 µM; in the assay on MDA-MB-435 it was 76.1 µM; with RPMI-8226 leukemia it was > 100 µM. The TGI with RXF 393 renal is 56.4 µM; with MOLT-4 leukemia it was > 100 µM; in the assay with MALME-3M melanoma, > 100 µM.

Turning to `Clc1ccc(CCN2CCN(CCCc3ccccc3)CC2)cc1Cl`, the TGI in the assay on SK-MEL-28 melanoma was 37.5 µM; in the assay on SW-620 colon it was 51.6 µM; in the assay with HS 578T breast it was 44.9 µM; in the assay with DU-145 prostate, 30.4 µM; in the assay on MDA-MB-435, 31.1 µM; with MCF7 breast it was 33.8 µM. Further, the TGI in the assay with RPMI-8226 leukemia was 55.2 µM; with MOLT-4 leukemia, > 100 µM; in the assay with MALME-3M melanoma it was 33.8 µM.

As to `O=c1[nH]/c(=C/c2ccc(OCc3ccccc3)cn2)c(=O)[nH]/c1=C/c1cccnc1`, the TGI was > 100 µM in the assay with SK-MEL-28 melanoma; > 100 µM in the assay on SW-620 colon; 2.08 µM in the assay on DU-145 prostate; 0.261 µM with MDA-MB-435; > 100 µM in the assay on MCF7 breast; > 100 µM with RXF 393 renal. In the assay with MALME-3M melanoma, the TGI was > 27.6 µM.

Take `COc1cc(C2c3cc4c(c(O)c3C(=O)C3CCC(=O)N32)OCO4)cc(OC)c1OC` (configuration not stated): the TGI was > 100 µM with SK-MEL-28 melanoma; > 100 µM with SW-620 colon; > 100 µM in the assay on HS 578T breast; > 100 µM with DU-145 prostate; 58.9 µM with MDA-MB-435; > 100 µM with MCF7 breast. For the same compound, the TGI with RPMI-8226 leukemia, in the assay with MOLT-4 leukemia and in the assay with MALME-3M melanoma was > 100 µM in each case.

For `Cc1cccc2ns[s+]c12`, the TGI in the assay with SK-MEL-28 melanoma is > 100 µM; in the assay on SW-620 colon, 32.7 µM; in the assay on RPMI-8226 leukemia, > 100 µM; in the assay with MOLT-4 leukemia, > 100 µM; in the assay on MALME-3M melanoma, > 100 µM.

For the compound `CN1C(=N\S(=O)(=O)c2ccc(Cl)cc2)/C(=N/N=P(c2ccccc2)(c2ccccc2)c2ccccc2)c2ccccc21`, the TGI in the assay on SK-MEL-28 melanoma, with SW-620 colon, with RXF 393 renal, in the assay on MOLT-4 leukemia and in the assay on MALME-3M melanoma was > 100 µM throughout.

Take `O=C(Cl)c1cc([N+](=O)[O-])cc([N+](=O)[O-])c1`: the TGI in the assay with SK-MEL-28 melanoma, with SW-620 colon, with RPMI-8226 leukemia, in the assay with MOLT-4 leukemia and in the assay with MALME-3M melanoma was > 100 µM in each case.

For `Cc1ccc(CCNC(=S)SCC(NC(=O)CCC(N)C(=O)O)C(=O)NCC(=O)O)cc1` (configuration not stated), the TGI turned out to be 7.63 µM with SK-MEL-28 melanoma; 3.01 µM in the assay on SW-620 colon; 1.43 µM in the assay on RPMI-8226 leukemia; 2.32 µM with RXF 393 renal; 3.93 µM in the assay with MOLT-4 leukemia; 4.47 µM in the assay on MALME-3M melanoma.

On to `CCCCCCCCCCCCCCCCCc1nc(C#N)c(N)o1`, for which the TGI in the assay on SK-MEL-28 melanoma was > 100 µM; with SW-620 colon it was > 100 µM; in the assay with HS 578T breast it was 85.4 µM; in the assay on DU-145 prostate, > 100 µM; in the assay on MDA-MB-435, > 100 µM; in the assay with MCF7 breast, > 100 µM. The TGI with RPMI-8226 leukemia is 52 µM; in the assay with MOLT-4 leukemia, > 100 µM.

Turning to `COc1nc(NC2OCC(OC(C)=O)C(OC(C)=O)C2OC(C)=O)c(N=C(C)C(C)=O)c(=O)n1C` (configuration not stated), the TGI with SK-MEL-28 melanoma, in the assay with SW-620 colon, in the assay on RPMI-8226 leukemia, with RXF 393 renal, with MOLT-4 leukemia and with MALME-3M melanoma was > 100 µM in each case.

Regarding `O=c1[nH]c2cccccc-2c1-c1nc2ccccc2[nH]1`, the TGI with SK-MEL-28 melanoma is 70.5 µM; in the assay on SW-620 colon it was > 100 µM; with RPMI-8226 leukemia it was > 100 µM; in the assay with RXF 393 renal, 45.6 µM; in the assay on MALME-3M melanoma, 50.6 µM.

`CC1(C)CC(=O)C2=C(C1)OC1=C(CC(C)(C)CC1=O)C2c1ccccc1Cl` (configuration not stated): the TGI in the assay on SK-MEL-28 melanoma, in the assay with SW-620 colon, in the assay on HS 578T breast, in the assay with DU-145 prostate, in the assay with MDA-MB-435 and with RPMI-8226 leukemia was > 100 µM throughout. In addition, the TGI in the assay on RXF 393 renal, in the assay with MOLT-4 leukemia and in the assay with MALME-3M melanoma was > 100 µM each time.

As to `COc1ccc2[nH]c3c(C)c4ccnc(NCCCN(C)CCCNC(=O)NCCCN(C)CCCNc5nccc6c(C)c7[nH]c8ccc(OC)cc8c7c(C)c56)c4c(C)c3c2c1`, the TGI with SK-MEL-28 melanoma is > 15.5 µM; with SW-620 colon it was 1.3 µM; with HS 578T breast, > 50 µM; with DU-145 prostate, > 10.9 µM; with MDA-MB-435, 1.24 µM; in the assay with RPMI-8226 leukemia, > 14.5 µM. Further, the TGI is 1.26 µM in the assay with RXF 393 renal and > 12.4 µM in the assay on MOLT-4 leukemia.

Consider `COc1ccccc1C1C(Cl)C(=O)N1NC(=O)Cc1ccccc1` (configuration not stated), for which the TGI in the assay on SK-MEL-28 melanoma, in the assay on SW-620 colon, in the assay on RPMI-8226 leukemia, with RXF 393 renal, in the assay with MOLT-4 leukemia and with MALME-3M melanoma was > 100 µM throughout.

Regarding `CCC1OC(=O)C(C)C(OC2CC(C)(O)C(O)C(C)O2)C(C)C(O)C(C)(O)CC(C)C(=O)C(C)C(O)C1C` (configuration not stated), the TGI in the assay with SK-MEL-28 melanoma, in the assay on SW-620 colon, in the assay on MCF7 breast, with RPMI-8226 leukemia, in the assay on RXF 393 renal and in the assay with MOLT-4 leukemia was > 300 µM throughout. Moreover, in the assay on MALME-3M melanoma, the TGI is > 300 µM.

For the compound `COc1cc(C=Nc2ccc(Oc3ccc(Cl)cc3)c(Cl)c2)cc(OC)c1OC`, the TGI in the assay on SK-MEL-28 melanoma was 53.8 µM; in the assay on SW-620 colon, > 100 µM; in the assay on HS 578T breast, 41.6 µM; in the assay with DU-145 prostate, 38.6 µM; with MDA-MB-435 it was > 100 µM; in the assay with MCF7 breast, 95.5 µM. Further, the TGI with RPMI-8226 leukemia is > 100 µM; with MOLT-4 leukemia, 76 µM; in the assay on MALME-3M melanoma it was 35.8 µM.

As for `Cc1c2cccc-2c(N(C)C)cc2c1[nH]c1ccccc12`, the TGI in the assay on SK-MEL-28 melanoma turned out to be 6.84 µM; in the assay on SW-620 colon, 18.9 µM; in the assay on HS 578T breast, 13.8 µM; with DU-145 prostate it was 28.7 µM; with MDA-MB-435, 22.5 µM; with MCF7 breast, 24.1 µM. For the same compound, the TGI in the assay on RPMI-8226 leukemia stood at 5.73 µM; in the assay on MOLT-4 leukemia, 16.9 µM; in the assay with MALME-3M melanoma, 10.9 µM.
